Measured values: patent US5175156A, “Chromic picolinate treatment” (Nutrition 21, priority 1991, dated 1992)
Values joined by “and” are separate entries in the source; they are usually repeats but may differ in a detail not shown here. Identical values can stand only once. “Also recorded” adds a separate entry of the source.

Tests used:
[1] = Absorption of orally administered chromium-51 compounds, radioactivity in liver and kidney (Example 1); conditions: rat; for Total radioactivity in tissue, Kidney / Total radioactivity in tissue, Liver: 150 ng oral gavage, 120 h after administration
Method: In this example, chromic tripicolinate was first synthesized by combining 3.66 grams of picolinic acid (Sigma Chemical, St. Louis) and 2.66 grams of chromic chloride with 20 ml. of deionized water. The solution was heated with stirring for 15 minutes after which the contents were placed in a refrigerator overnight to obtain maximum crystalization. The supernatant was removed by vacuum filtration followed by recrystalization from hot deionized water. To synthesize chromic (chromium-51) tripicolinate, 0.12 micromoles recrystalized picolinic acid was added to a solution containing 0.03 micromoles of chromic (Cr^51) chloride in 5.0 ml. acetate buffer, pH 5.0. The solution was stirred for 30 minutes at 90° C., cooled and subsequently reheated for 30 minutes at 90° C. The solution was cooled to room temperature before use.
Each of four male Sprague-Dawley rats weighing 125-150g was given an oral dose of 150 ng. chromic (Cr-51) picolinate in 0.51 ml. by gavage tube. An identical quantity of Cr-5I as chloride in acetate buffer was also administered to each of four rats. […] One hundred twenty hours after oral administration of the two forms of labeled chromium, each of the rats was killed by exsanguination after which the liver and kidneys were removed and cut into 1.0 g portions for assay of radioactivity content.

[2] = in vivo; cited from earlier work
[3] = tested on: Glucose Tolerance Factor activity; assay: Glucose Tolerance Factor activity; conditions: no data given
[4] = Anabolic effect in male university students in weight training (Example 5); format: in vivo, human
Method: This study was performed to evaluate the anabolic effect of chromic tripicolinate in male subjects.
At the start of the study, 10 male university students enrolled in weight training classes, were given, at random, a 40-day supply of capsules that contained either placebo (5 mg of calcium phosphate) or chromic tripicolinate ([…] chromic tripicolinate admixed with 5 mg of calcium phosphate, which provided 200 ug of chromium). The identity of the capsules was known only to an individual who was not in any way involved in the study. During the 40-day period, each of the volunteers followed a prescribed weight lifting protocol for a total of 3 hours per week. Measurements taken at the beginning and again at the end of the study included various skin-fold thicknesses, biceps and calf circumferences, and body weight. Percent body fat was derived from the sum of the triceps, subscapular and chest skinfolds. Lean body mass was derived from anthropometrically-determined percent body fat: weight-(weight×percent body fat).

[5] = in vivo
Method: Subjects for the study were obtained after screening a group of volunteers. Thirty-two volunteers age 25-80 with total cholesterol levels of 5.7-8.3 mmoles/l (220-320 mg/dl) were initially chosen. […] None of the subjects was using beta blockers, thiazide diuretics, steroids, chromium supplements or any investigational drugs. The volunteers were requested not to alter dietary or exercise habits during the course of the study. Informed consent was obtained and the subjects were paid a stipend for their participation.
For the double-blind, cross-over study, subjects were divided randomly into two treatment groups by a non-participant. During each half of the study participants ingested gelatin capsules that contained either chromic tripicolinate or a placebo. The chromic tripicolinate supplement contained 1.6 mg chromium tripicolinate (200 micrograms Cr^+3) mixed with 5 mg calcium phosphate. The placebo contained only 5 mg calcium phosphate. The study consisted of two 42-day periods with a 14-day period off capsules between treatments. Compliance by subjects was monitored by capsule count.
At the beginning, after three weeks and at the end of each period, heart rate, blood pressure, weight and temperature were measured and a fasting-blood sample was drawn. Serum parameters measured included total cholesterol, LDL-cholesterol, HDL-cholesterol, triglycerides, apolipoprotein A1 and apolipoprotein B. Serum concentrations of cholesterol and triglycerides were determined with an Olympus 500 Automated Colormetric System (Olympus Instrument Co., Los Angeles, Calif., U.S.A.). HDL-cholesterol was assayed with an enzyme heparin-manganese chloride precipitation method (Albers et al., Clin Chem., 1978; 24:853-856). LDL-cholesterol was estimated by the method of Friedwald (Friedwald, Clin Chem., 1972; 18:499-502). Concentrations of apolipoprotein A1 and apolipoprotein B in serum were assayed with a nephelometric immunoassay (Naito, J. Clin. Immunol.. 1986; 9:110-120) using a Boehringer laser kit.
For statistical analysis of the measurements made in this study, the values obtained at the beginning and at the end of each 42-day period were used. Because each subject served as its own control, paired t tests were used to identify statistically significant differences between mean values of changes and differences in changes. Student's t test and p values were determiend with the program WORMSTAT™ (available from Small Business Computers, New England, Conn., U.S.A.).

[6] = tested on: insulin and insulin receptors; assay: Binding to insulin and insulin receptors; conditions: no data given
[7] = Oral toxicity experiment in rats (Example 2); format: in vivo
Method: In a toxicity experiment, rats weighing a mean of 223.4 g were given an oral suspension of 100 mg, 300 mg and 500 mg chromic tripicolinate in water. […] The tests were stopped at 500 mg because it was impossible to obtain a workable suspension beyond this level.

[8] = tested on: serum lipid parameters; assay: Double-blind cross-over human study, serum lipid parameters (Example 3); format: in vivo
Method: Chromium tripicolinate was synthesized by first dissolving 2.66 g CrCl3.6 H2 O in 25 ml warm (60° C.), deionized water. Thereafter, 3.69 g picolinic acid (Sigma Chemical, St. Louis, Mo., U.S.A.) was added and the contents were stirred with gentle heating until the solution turned purple and crystals began to form. The solution was then left standing at 4° C. overnight. The supernatant was then discarded and the crystals were airdried at room temperature.
The placebo contained only 5 mg calcium phosphate. […] Compliance by subjects was monitored by capsule count. The foregoing study protocol is illustrated in FIG. 1.

[9] = tested on: adult onset diabetes mellitus (AODM)
Method: Eleven subjects with adult onset diabetes mellitus (AODM), participated in this study. These subjects had hemoglobin A1 C concentrations greater than 9.0 and were on stable doses of oral hypoglycemic agents for four months. […] The dose of oral agent remained constant during the study.
The following parameters: Cholesterol, HDL, LDL, and hemoglobin A1 C were tested initially, and at the end of each half of the study. Fasting blood sugars, blood pressure, weight and temperature were tested initially; at three weeks; and at the end of the study.
Glycosylated hemoglobin was measured by a modification of the method of Clegg and Schroeder (Clegg, et al. J. Lab Clin. Med., 102:577-589, (1983)), using a Fast Hemoglobin Minicolumn, available from Isolab; Akron, Ohio, U.S.A.). Normal values are 5.5 to 7.5%. Fasting glucoses were measured by finger stick glucometer readings (using an Accucheck II from Boehringer Mannheim, Indianapolis, Ind., U.S.A.).
Split samples of cholesterol were sent to laboratories for analysis. Split samples of apolipoproteins were analyzed on a Beckman Array protein analyzer that was standardized by the Center for Disease Control, Atlanta, Georgia, U.S.A., using Lipid Research Clinic Guidelines (see J. A. M. A. 251: 351, (1984) and J. A. M. A. 251: 365, (1984)).
For EXAMPLE 4, summary statistics are expressed as the mean ± standard error of the mean (SEM). Split-plot analyses of variance were used to assess treatment effects on the various parameters in the cross-over studies of variance (see Hills, et al., Br. J. Clin. Pharmacol. 8:7-20, (1979)). Correlation analysis was performed with a linear regression curve-fitting program.

[10] = 28 subjects, mean ± SD, 42 days
[11] = 28 subjects, mean ± SD, 42 days, listed as Chromic Tripicolinate
[12] = 28 subjects, mean ± SD, start of 42-day period
[13] = combined results, 42 days, p<0.001
[14] = 6 weeks Cr supplementation, 11 AODM subjects, mean ± SEM
[15] = 6 weeks Cr supplementation, 11 AODM subjects, mean ± SEM, significant difference from placebo, p <0.05

[Cl][51Cr]([Cl])[Cl] [Chromic (Cr-51) Chloride, chromic (Cr^51) chloride, reference compound]
Total radioactivity in tissue, Kidney [1]: 39030 CPM | Total radioactivity in tissue, Liver [1]: 30050 CPM

O=C([O-])c1ccccn1.O=C([O-])c1ccccn1.O=C([O-])c1ccccn1.[Cr+3] [Chromic (Cr-51) Picolinate, chromic (chromium-51) tripicolinate]
Total radioactivity in tissue, Kidney [1]: 157525 CPM | Total radioactivity in tissue, Liver [1]: 115075 CPM

[Cl][Cr]([Cl])[Cl] [chromic chloride, reference compound]
effect of supplementation, result in words [2]: improvements of risk factors associated with maturity-onset diabetes and cardiovascular diseases

[Cr] [chromium]
effect of supplementation, result in words [2]: improvements in glucose tolerance, serum lipid concentrations, including high-density lipoprotein cholesterol, insulin and insulin binding

chromic tripicolinate
rate of absorption relative to chromic chloride ([1]; in vivo, po, 7200 min): about 4 times | Glucose Tolerance Factor activity [3]: has Glucose Tolerance Factor activity | calculated lean body mass, increase ([4]; 40 days, 200 ug chromium, P=0.017): 1.6 kg | calf circumference, increase ([4]; 40 days, 200 ug chromium, P=0.029): 1.15±0.67 cm | body weight, increase ([4]; 40 days, 200 ug chromium, P=0.0325): 2.18 ± 1.34 kg | increase in lean body mass compared with placebo group ([4]; Student's t test, P=0.0198): significantly greater | blood pressure, change in words [5]: No significant changes | heart rate, change in words [5]: No significant changes | subjects who developed a fine rash about their forearms [5]: one | subjects who developed mouth ulcers [5]: one | temperature, change in words [5]: No significant changes | binding to insulin and insulin receptors [6]: binds to insulin and insulin receptors | human dose before any effects would be observed ([7]; 70 Kg human, extrapolated from rats): greater than 156 grams | oral lethal dose ([7]; rats, mean 223.4 g, oral suspension in water): > 2200 mg/kg | deaths ([7]; rats, oral 100 mg, 300 mg and 500 mg): No deaths occurred | Apo B, change ([8]; 28 subjects, 42 days, p = .001): -25 mg/dL | Apo A, change ([8]; 28 subjects, 42 days, p = .003): +16 mg/dl | apolipoprotein B, reduction ([8]; 28 subjects, 42 days, p=0.001): 16% | LDL-cholesterol, final ([8]; 28 subjects, after 42 days): 178 mg/dL | LDL-cholesterol, initial ([8]; 28 subjects, before 42 days): 200 mg/dL | Apo A, final [8, 10]: 163 ± 31 mg/dL | Apo B, final [8, 10]: 130 mg/dL | Cholesterol Total, final [8, 10]: 256 mg/dL | LDL, final [8, 10]: 5.1 mmol/L | Cholesterol Total, final ([8]; 28 subjects, mean ± SD, 42 days, 200 micrograms Cr daily): 6.6 mmol/L | Cholesterol Total, final ([8]; 28 subjects, mean ± SD, 42 days, 200 micrograms Cr daily, listed as Chromic Tripicolinate): 6.6 ± 1.0 mmol/L | Apo B, final [8, 11]: 130 ± 45 mg/dL | Cholesterol Total, final [8, 11]: 256 ± 41 mg/dL | Apo A, initial [8, 12]: 147 ± 28 mg/dL | Apo B, initial [8, 12]: 155 mg/dL | LDL, initial [8, 12]: 5.7 mmol/L | Apo B, initial ([8]; 28 subjects, mean ± SD, start of 42-day period, listed as Chromic Tripicolinate): 155 ± 50 mg/dL | serum HDL-cholesterol, change in words ([8]; 28 subjects, p>0.05): increased slightly but not significantly | LDL-cholesterol, decrease ([8]; 42 days): 10% and 10.5% | Total cholesterol concentration, decrease ([8]; 42 days): 7% | serum triglycerides, change in words ([8]; 42 days): No significant changes | LDL-cholesterol, change in words [8, 13]: decreased significantly; also recorded: significant (p<0.001) reductions | total cholesterol, change in words [8, 13]: decreased significantly; also recorded: significant (p<0.001) reductions | apolipoprotein B, change in words ([8]; combined results, 42 days, p=0.001): significant reduction; also recorded: decreased significantly | apolipoprotein A1, change in words ([8]; combined results, 42 days, p=0.003): significant elevation; also recorded: significantly elevated | LDL-cholesterol, change in words ([8]; final 42 days, placebo-first group, p=0.003): decreased significantly | total cholesterol, change in words ([8]; final 42 days, placebo-first group, p=0.009): decreased significantly | apolipoprotein B, change in words ([8]; first 6-week period, subjects starting with chromic tripicolinate, p=0.003): significantly decreased | total cholesterol, change in words ([8]; first 6-week period, subjects starting with chromic tripicolinate, p=0.007): significantly decreased | LDL-cholesterol, change in words ([8]; first 6-week period, subjects starting with chromic tripicolinate, p=0.015): significantly decreased | apolipoprotein A1, change in words ([8]; first 6-week period, subjects starting with chromic tripicolinate, p=0.047): significantly elevated | subjects with decreased LDL-cholesterol ([8]; of 28 subjects): 20 | subjects with elevated cholesterol ([8]; of 28 subjects): 4 | subjects with lower total cholesterol ([8]; of 28 subjects): 22 | subjects with unchanged LDL-cholesterol ([8]; of 28 subjects): 3 | subjects with unchanged total cholesterol ([8]; of 28 subjects): 2 | apolipoprotein B, change in words ([8]; placebo-first group, after chromic tripicolinate, p=0.072): decreased, but not significantly | apolipoprotein A1, change in words ([8]; placebo-first group, chromic tripicolinate period, p=0.007): increased significantly | Cholesterol [9, 14]: 211.4 | HDL [9, 14]: 52.3 | LDL [9, 14]: 139.5 | Fasting Bld Sugar [9, 15]: 162.2 | Hemoglobin A1 C [9, 15]: 10.4 | HDL, trend in words ([9]; P was not <0.05): trends were favorable | cholesterol, trend in words ([9]; P was not <0.05): trends were favorable | fasting glucose, change in words ([9]; diabetic subjects): significant decreases | glycosylated hemoglobin, change in words ([9]; diabetic subjects): significant decreases | Blood Pressure, first figure ([9]; human, in vivo): 132.9 | Blood Pressure, second figure ([9]; human, in vivo): 72.4 | Heart Rate ([9]; human, in vivo): 70.1 | Temperature ([9]; human, in vivo): 97.8 °F | blood pressure, change in words ([9]; human, in vivo): no significant changes | heart rate, change in words ([9]; human, in vivo): no significant changes | temperature, change in words ([9]; human, in vivo): no significant changes | weight, change in words ([9]; human, in vivo): no significant changes | LDL, decrease ([9]; treatment versus placebo (FIG. 9)): 8%
